Experimental data from patent US20230312550A1, “N-(2-(4-CYANOTHIAZOLIDIN-3-YL)-2-OXOETHYL)-QUINOLINE-4-CARBOXAMIDES” (AstraZeneca AB, priority 2020, published 2023).
Converted amounts (≈) assume the structure as drawn.

Legend:
FAP = FAP (Homo sapiens (Human), UniProt Q12884); assay: hFAP inhibition assay; format: biochemical; details: Ala-Pro-AMC 20 μM, n = 1 or geometric mean n = 2-3
Protocol: 384 low volume black plates (Greiner #784076) were used. 4 μL, 0.48 nM enzyme solution (100 mM Tris HCl, 100 mM NaCl, 0.05% Chaps, pH 7.4) was added to 40 nL compounds (in DMSO) at 10 CR, 3 fold dilution series from 50 μM FAC. Plates were incubated for 15 min at rt in dark. 4 μL, 40 μM substrate solution (100 mM Tris HCl, 100 mM NaCl, 0.05% Chaps, pH 7.4) was added to each well. Plates were centrifuged at 1000 rpm and incubated for 30 min at rt in dark. The plates were read on a PHERAstar® reader with excitation 340 nm and emission 460 nm. Data were analyzed in Genedata Screener®. IC50 values were determined by plotting % inhibition versus log compound concentration and using a one site dose response model.

[1] = molecular target: human Fibroblast activation protein alpha (hFAP) (Homo sapiens (Human), UniProt Q12884); assay: hFAP inhibition assay (tight binders); format: biochemical; details: Ala-Pro-AMC 20 μM, n = 1 or geometric mean n = 2-6; note: hFAP 2.4 pM
Protocol: The plates were read on a PHERAstar® reader with excitation 340 nm and emission 460 nm. Data were analyzed in Genedata Screener®. IC50 values were determined by plotting % inhibition versus log compound concentration and using a one site dose response model.

hFAP (M39-A757) = hFAP (M39-A757) (Homo sapiens (Human), UniProt Q12884); assay: hFAP binding assay (surface plasmon resonance); details: SPR, 20° C.; for hFAP Binding assay k(off) / hFAP Binding assay k(on): single cycle kinetics; for Kd: n = 1 or geometric mean n = 2-4
[2] = molecular target: Prolyl endopeptidase, Prolyl Oligopeptidase (hPREP) (Homo sapiens (Human), UniProt P48147); assay: hPrep inhibition assay; format: biochemical; details: hPREP 0.6 nM, Z-Gly-Pro-amino-methylcoumarin 50 μM; read-out: PREP IC50
How it was run: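 Fluorogenic read-out (340 nm excitation, 460 nm emission) after 20 min at rt, using 50 μM final Z-Gly-Pro-aminomethylcoumarin and 0.6 nM final enzyme, following 15 min compound preincubation. Buffer pH 7.5 with glutathione and Triton X-100. IC50 via one-site model on % inhibition vs log concentration.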

Kinetic solubility = details: kinetic from dmso stock
Protocol: Kinetic solubility was measured as described in Comput Aided Mol Des 2015, 29, 795.

[3] = Metabolic stability in rat hepatocytes (rHep); details: n = 1 or geometric mean of n = 2-3
[4] = Metabolic stability in human liver microsomes (HLM); details: human
Protocol: Metabolic stability in HLM was measured as described in J Comput Aided Mol Des 2015, 29, 795.

[5] = Solubility, kinetic solubility, n = 1 or average of n = 2-3
[6] = HLM CLint, n = 1 or average of n = 2-3

hFAP (M39-A757), sequence (Q12884 39-757): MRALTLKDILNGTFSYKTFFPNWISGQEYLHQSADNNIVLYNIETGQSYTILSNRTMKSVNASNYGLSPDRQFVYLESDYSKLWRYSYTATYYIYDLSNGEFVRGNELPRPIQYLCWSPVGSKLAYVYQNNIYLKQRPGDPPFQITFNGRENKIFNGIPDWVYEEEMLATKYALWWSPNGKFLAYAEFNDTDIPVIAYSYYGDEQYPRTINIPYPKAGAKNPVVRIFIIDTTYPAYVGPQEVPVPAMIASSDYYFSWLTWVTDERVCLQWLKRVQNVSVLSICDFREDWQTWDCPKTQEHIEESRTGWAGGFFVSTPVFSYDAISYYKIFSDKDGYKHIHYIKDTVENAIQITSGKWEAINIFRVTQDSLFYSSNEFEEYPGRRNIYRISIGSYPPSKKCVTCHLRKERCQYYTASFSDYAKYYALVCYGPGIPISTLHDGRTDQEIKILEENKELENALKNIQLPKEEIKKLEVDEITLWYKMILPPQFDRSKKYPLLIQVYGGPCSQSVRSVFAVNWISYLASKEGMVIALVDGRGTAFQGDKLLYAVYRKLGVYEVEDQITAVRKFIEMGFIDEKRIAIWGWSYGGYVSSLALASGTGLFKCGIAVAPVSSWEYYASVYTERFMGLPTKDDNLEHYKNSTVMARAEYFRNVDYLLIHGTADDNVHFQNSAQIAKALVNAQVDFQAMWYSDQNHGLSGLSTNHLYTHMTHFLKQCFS
human Fibroblast activation protein alpha (hFAP), sequence (Q12884 38-760): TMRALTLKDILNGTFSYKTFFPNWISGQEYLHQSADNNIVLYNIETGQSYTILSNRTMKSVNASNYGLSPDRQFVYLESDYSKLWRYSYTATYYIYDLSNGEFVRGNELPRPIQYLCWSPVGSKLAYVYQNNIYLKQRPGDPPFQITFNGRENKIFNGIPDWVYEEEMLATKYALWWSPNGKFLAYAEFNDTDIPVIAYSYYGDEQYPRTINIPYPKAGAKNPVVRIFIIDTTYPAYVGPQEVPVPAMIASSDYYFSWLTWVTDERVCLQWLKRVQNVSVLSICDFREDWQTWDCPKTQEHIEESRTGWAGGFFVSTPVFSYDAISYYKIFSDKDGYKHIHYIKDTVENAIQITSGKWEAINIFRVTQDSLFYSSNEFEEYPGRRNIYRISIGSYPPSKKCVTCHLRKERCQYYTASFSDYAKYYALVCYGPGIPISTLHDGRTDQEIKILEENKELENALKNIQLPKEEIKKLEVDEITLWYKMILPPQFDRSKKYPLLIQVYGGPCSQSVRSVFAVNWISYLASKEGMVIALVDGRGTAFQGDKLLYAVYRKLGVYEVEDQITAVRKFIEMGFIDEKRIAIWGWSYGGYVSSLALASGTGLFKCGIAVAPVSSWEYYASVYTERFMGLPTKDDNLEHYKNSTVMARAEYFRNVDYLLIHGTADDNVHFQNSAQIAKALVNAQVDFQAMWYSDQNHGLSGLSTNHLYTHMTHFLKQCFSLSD
FAP, sequence (Q12884 38-760): as above
Prolyl endopeptidase, Prolyl Oligopeptidase (hPREP), sequence (P48147 whole entry): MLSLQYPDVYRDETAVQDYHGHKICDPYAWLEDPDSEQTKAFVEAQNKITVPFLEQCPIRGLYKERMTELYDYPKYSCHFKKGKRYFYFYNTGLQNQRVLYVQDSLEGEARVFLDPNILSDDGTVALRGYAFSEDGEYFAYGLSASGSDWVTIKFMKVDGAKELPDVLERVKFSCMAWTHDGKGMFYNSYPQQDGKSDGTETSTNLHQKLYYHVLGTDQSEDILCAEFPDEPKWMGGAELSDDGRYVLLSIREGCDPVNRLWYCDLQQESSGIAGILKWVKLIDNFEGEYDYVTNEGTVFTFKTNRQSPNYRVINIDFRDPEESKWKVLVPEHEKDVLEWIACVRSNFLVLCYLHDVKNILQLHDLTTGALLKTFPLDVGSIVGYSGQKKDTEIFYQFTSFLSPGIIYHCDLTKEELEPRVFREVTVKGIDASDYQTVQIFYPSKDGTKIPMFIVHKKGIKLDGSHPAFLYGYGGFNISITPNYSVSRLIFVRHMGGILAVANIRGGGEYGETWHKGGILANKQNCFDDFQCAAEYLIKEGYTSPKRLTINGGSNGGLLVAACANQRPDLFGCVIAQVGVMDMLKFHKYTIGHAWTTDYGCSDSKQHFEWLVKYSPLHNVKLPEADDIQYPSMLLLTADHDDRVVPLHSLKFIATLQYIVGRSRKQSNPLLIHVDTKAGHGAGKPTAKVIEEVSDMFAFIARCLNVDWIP

Compound	IC50 (FAP; hFAP 0.24 nM)	IC50 [1]	hFAP Binding assay k(off) (hFAP (M39-A757))	hFAP Binding assay k(on) (hFAP (M39-A757))	Kd (hFAP (M39-A757))	IC50 [2]	solubility (Kinetic solubility; [5])	rHep CLint [3]	microsomal CLint [4, 6]	IC50 (FAP; hFAP […])	solubility (Kinetic solubility)	microsomal CLint [4]
N#C[C@@H]1CSCN1C(=O)CNC(=O)c1ccnc2ccc(-c3ccnn3[C@H]3CCCCO3)cc12 (mixture of isomers) [Example 176, N-(2-((R)-4-Cyanothiazolidin-3-yl)-2-oxoethyl)-6-(1-((RS)-tetrahydro-2H-pyran-2-yl)-1H-pyrazol-5-yl)quinoline-4-carboxamide]	0.54 nM	0.087 nM	0.00022 s⁻¹	120000 M⁻¹ s⁻¹	1.9 nM	560 nM	800 µM	15 μL/min/1E6	92 µL/min/mg	–	–	–
N#C[C@@H]1CSCN1C(=O)CNC(=O)c1ccnc2ccc(N3CC[C@@H](F)C3)cc12 [Example 52, N-(2-((R)-4-Cyanothiazolidin-3-yl)-2-oxoethyl)-6-((R)-3-fluoropyrrolidin-1-yl)quinoline-4-carboxamide]	–	0.045 nM	0.00019 s⁻¹	6800000 M⁻¹ s⁻¹	0.044 nM	400 nM	57 µM (≈ 23.6 µg/mL)	21 μL/min/1E6	22 µL/min/mg	0.2 nM	–	–
N#C[C@@H]1CSCN1C(=O)CNC(=O)c1ccnc2ccc(N3CC(F)(c4ccccc4)C3)cc12 [Example 182, (R)—N-(2-(4-Cyanothiazolidin-3-yl)-2-oxoethyl)-6-(3-fluoro-3-phenyl-azetidin-1-yl)quinoline-4-carboxamide]	–	0.19 nM	0.000042 s⁻¹	250000 M⁻¹ s⁻¹	0.093 nM	210 nM	230 µM (≈ 109 µg/mL)	26 μL/min/1E6	100 µL/min/mg	0.41 nM	–	–
N#C[C@@H]1CSCN1C(=O)CNC(=O)c1ccnc2ccc(N3CCCC[C@@H](F)C3)cc12 [Example 59, N-(2-((R)-4-Cyanothiazolidin-3-yl)-2-oxoethyl)-6-((R)-3-fluoroazepan-1-yl)quinoline-4-carboxamide]	–	0.061 nM	0.00019 s⁻¹	2600000 M⁻¹ s⁻¹	0.087 nM	30 nM	40 µM (≈ 17.7 µg/mL)	91 μL/min/1E6	> 300 µL/min/mg	0.27 nM	–	–
N#C[C@@H]1CSCN1C(=O)CNC(=O)c1ccnc2ccc(N3C[C@@H]4CC[C@H]3C4)cc12 (mixture of isomers) [Example 210, 6-((1RS,4SR)-2-Azabicyclo[2.2.1]heptan-2-yl)-N-(2-((R)-4-cyanothiazolidin-3-yl)-2-oxoethyl)quinoline-4-carboxamide]	0.44 nM	0.18 nM	0.000098 s⁻¹	3800000 M⁻¹ s⁻¹	0.026 nM	220 nM	150 µM	250 μL/min/1E6	220 µL/min/mg	–	–	–
CC1(CF)CCN(c2ccc3nccc(C(=O)NCC(=O)N4CSC[C@H]4C#N)c3c2)CC1 [Example 37, (R)—N-(2-(4-Cyanothiazolidin-3-yl)-2-oxoethyl)-6-(4-(fluoromethyl)-4-methylpiperidin-1-yl)quinoline-4-carboxamide]	–	0.19 nM	0.000030 s⁻¹	1000000 M⁻¹ s⁻¹	0.028 nM	270 nM	210 µM (≈ 95.7 µg/mL)	30 μL/min/1E6	66 µL/min/mg	0.22 nM	–	–
N#C[C@@H]1CSCN1C(=O)CNC(=O)c1ccnc2ccc(N3CCC34CCC4)cc12 [Example 19, (R)—N-(2-(4-Cyanothiazolidin-3-yl)-2-oxoethyl)-6-(1-azaspiro[3.3]heptan-1-yl)quinoline-4-carboxamide]	–	0.38 nM	0.000066 s⁻¹	430000 M⁻¹ s⁻¹	0.15 nM	160 nM	–	63 μL/min/1E6	–	0.66 nM	480 µM (≈ 202 µg/mL)	190 µL/min/mg
N#C[C@@H]1CSCN1C(=O)CNC(=O)c1ccnc2ccc(N3CC(c4ccc(F)cc4)C3)cc12 [Example 185, (R)—N-(2-(4-Cyanothiazolidin-3-yl)-2-oxoethyl)-6-(3-(4-fluorophenyl)-azetidin-1-yl)quinoline-4-carboxamide]	–	0.12 nM	–	–	0.043 nM	130 nM	7 µM (≈ 3.33 µg/mL)	15 μL/min/1E6	58 µL/min/mg	0.23 nM	–	–
N#C[C@@H]1CSCN1C(=O)CNC(=O)c1ccnc2ccc(N3CC[C@H](F)C3)cc12 [Example 51, N-(2-((R)-4-Cyanothiazolidin-3-yl)-2-oxoethyl)-6-((S)-3-fluoropyrrolidin-1-yl)quinoline-4-carboxamide]	–	0.064 nM	0.00011 s⁻¹	5600000 M⁻¹ s⁻¹	0.021 nM	130 nM	56 µM (≈ 23.2 µg/mL)	24 μL/min/1E6	14 µL/min/mg	0.21 nM	–	–
N#C[C@@H]1CSCN1C(=O)CNC(=O)c1ccnc2ccc(N3CCC[C@H]3C(F)(F)F)cc12 [Example 56, N-(2-((R)-4-Cyanothiazolidin-3-yl)-2-oxoethyl)-6-((S)-2-(trifluoromethyl)-pyrrolidin-1-yl)quinoline-4-carboxamide]	–	0.19 nM	0.00011 s⁻¹	540000 M⁻¹ s⁻¹	0.14 nM	220 nM	5.9 µM (≈ 2.73 µg/mL)	160 μL/min/1E6	> 300 µL/min/mg	0.44 nM	–	–
C[C@@H]1CN(c2ccc3nccc(C(=O)NCC(=O)N4CSC[C@H]4C#N)c3c2)CCCO1 [Example 64, N-(2-((R)-4-Cyanothiazolidin-3-yl)-2-oxoethyl)-6-((R)-2-methyl-1,4-oxazepan-4-yl)quinoline-4-carboxamide]	–	0.085 nM	0.00015 s⁻¹	1300000 M⁻¹ s⁻¹	0.12 nM	610 nM	130 µM (≈ 57.1 µg/mL)	29 μL/min/1E6	56 µL/min/mg	0.28 nM	–	–
CC1(C)CCN(c2ccc3nccc(C(=O)NCC(=O)N4CSC[C@H]4C#N)c3c2)C1 [Example 48, (R)—N-(2-(4-Cyanothiazolidin-3-yl)-2-oxoethyl)-6-(3,3-dimethylpyrrolidin-1-yl)quinoline-4-carboxamide]	–	0.11 nM	0.000089 s⁻¹	1400000 M⁻¹ s⁻¹	0.067 nM	170 nM	18 µM (≈ 7.62 µg/mL)	51 μL/min/1E6	89 µL/min/mg	0.29 nM	–	–
CC1(C)CCN1c1ccc2nccc(C(=O)NCC(=O)N3CSC[C@H]3C#N)c2c1 [Example 20, (R)—N-(2-(4-Cyanothiazolidin-3-yl)-2-oxoethyl)-6-(2,2-dimethylazetidin-1-yl)quinoline-4-carboxamide]	–	0.43 nM	0.00012 s⁻¹	4200000 M⁻¹ s⁻¹	0.03 nM	430 nM	900 µM (≈ 369 µg/mL)	120 μL/min/1E6	290 µL/min/mg	0.74 nM	–	–
CC1(C)CCCN1c1ccc2nccc(C(=O)NCC(=O)N3CSC[C@H]3C#N)c2c1 [Example 57, (R)—N-(2-(4-Cyanothiazolidin-3-yl)-2-oxoethyl)-6-(2,2-dimethylpyrrolidin-1-yl)quinoline-4-carboxamide]	–	0.098 nM	0.00018 s⁻¹	8000000 M⁻¹ s⁻¹	0.022 nM	160 nM	150 µM (≈ 63.5 µg/mL)	>300 μL/min/1E6	> 300 µL/min/mg	0.26 nM	–	–
